Measurements from patent US20250297225A1, “MULTIPLE HEART TISSUE CULTURE FUSION” (IMBA - INSTITUT FÜR MOLEKULARE BIOTECHNOLOGIE GMBH, priority 2022, published 2025).
“Also recorded” adds a separate entry of the source.

What was measured:
[1] = system: cardioids (LV, RV, OFT, Atria, AVC); assay: Real-time qPCR of cardioids treated with teratogens; type: cell-based, human
Method: The isolated RNA was reverse transcribed to cDNA using the Reverse Transcription Kit (Invitrogen, #18080044) with a C100 Touch Bio-Rad Thermal Cycler. Quantitative PCR was performed using the GoTaq qPCR master mix 2× (Promega, #A6001) with a Bio-Rad CFX384 Real-Time thermal cycler. Values of gene expression of each sample were obtained in triplicates. The Log-fold change of the sample from PBGD as a housekeeping gene and a pluripotent stem cell sample for normalization were used.

[2] = system: cardioids (LV, RV, OFT, Atria, AVC); settings: for dosage at which severe compartment-specific and stage-specific effects were observed: human
Method: All cardioids were treated with the teratogens from mesoderm induction (day 0) until day 9.5.
All cardioids were treated with the teratogens from mesoderm induction (day 0) until day 9.5. *p<0.05, **p<0.01, ***p<0.001, ****p<0.0001.
hPSCs (WTC or H9 lines) are seeded in a 24-well plate (TPP, #92024) at 30-40 k cells per well in E8 medium+ROCKi (5 μM Y-27632, Tocris #1254). […] The medium contains BSA which is important for efficient cardioid generation. 24 hours after seeding in the 24-well plate, the cells are induced with mesoderm induction media. Mesoderm induction media is made up of CDM containing FGF2 (30 ng/ml, QKine, Cambridge/UK), LY294002 (5 μM, Tocris, #1130), Activin A (specific concentrations for different cardioid subtypes-see below, QKine, Cam-bridge/UK), BMP4 (10 ng/ml, R&D Systems RD-314-BP-050), and CHIR99021 (specific concentrations for different cardioid subtypes—see below, R&D Systems RD-4423/50). After 36-40 hours cells are dissociated with TrypleE (Gibco, #12605010) and seeded in a Corning ultra-low attachment 96 well plate (Corning, #7007) at 15-20 k cells/well in Cardiac Mesoderm Patterning Media One made up of CDM containing ROCK inhibitor and for all protocols besides the LV 1 μg/ml of insulin (Roche, #11376497001) plus specific factors depending on cardioid subtype (see below). After seeding, the cells are spun down in a centrifuge for 4 mins at 200 g. This protocol is termed 2D-3D standard protocol. Alternatively, hPSCs were seeded into Corning ultra-low attachment 96 well plate with a density of 5000 cells/well. Cells were seeded in a volume of 200 ml containing E8+ROCKi and collected by centrifugation for 5 minutes at 200 g. As another option, 2500 cells/well were seeded directly into induction media+ROCKi and collected by centrifugation for 5 minutes at 200 g. For both protocols, cells were induced with mesoderm induction media as described for the 2D->3D protocol. These were termed 3D protocols. For both protocols, 24 hours later (or at day 2.5) the cells are fed with Cardiac Mesoderm Patterning Media One. For the next two days, the medium is changed to Cardiac Mesoderm Patterning Media Two made up of CDM containing specific factors depending on the cardioid subtype (see below) and exchanged every day. For the subsequent two days, media is exchanged every day with Cardiomyocyte Differentiation Media CDM medium containing BMP4 (10 ng/ml), FGF2 (8 ng/ml) and insulin (10 μg/ml). For the subsequent days of culture, media is exchanged every other day with CDM containing insulin (10 μg/ml).
Spinning disk confocal microscopes (Olympus spinning disk system based on an IX3 Series (IX83) inverted microscope, equipped with a Yokogawa W1 spinning disc) were used to image fixed tissue sections. Live imaging was carried out using an inverted widefield microscope for brightfield and fluorescence (Axioobserver Z1 equipped with an sCMOS camera (Hamamatsu Orca Flash 4). Cardioids in 96-well plates were also imaged using a Celigo Imaging Cytometer microscope (Nexcelom Biosciences, LLC).

[3] = system: FHF and aSHF progenitors / cardioids; assay: Lineage specification of cardiac progenitors/cardioids by retinoic acid dosage; type: cell-based, human; settings: LV (FHF progenitor), Cardiac Mesoderm Patterning Media One
Method: These were termed 3D protocols.
The retinoic acid concentration should be low as a higher concentration (>100 nM) leads to FHF-derived atria, not ventricular fate.
The retinoic acid addition here helps drive the RV identity.

[4] = cited from earlier work

Structure (SMILES): CC(=O)Oc1ccccc1C(=O)O [Aspirin]
- gene expression differences vs control cardioids ([1]; high 30 μM dosage): no obvious gene expression differences; also recorded: neither observed morphological nor significant gene expression differences
- size and TNNI-GFP expression compared to untreated cardioids [2]: no size and TNNI-GFP expression differences

Structure (SMILES): CC1=C(/C=C/C(C)=C/C=C/C(C)=C/CO)C(C)(C)CCC1 [All trans Retinol]
- gene expression in OFT cardioids (OFT, ventricular, chamber, atrial genes) ([1]; OFT cardioids): downregulation of OFT and upregulation of ventricular genes
- effect on all the other cardioid subtypes [2]: unaffected
- morphological effect on OFT cardioids [2]: severe morphological effect on OFT cardioids
- size difference between treated and untreated cardioids [2]: no size difference between treated and untreated cardioids within one protocol the except LV cardioids treated with 50 nM

Structure (SMILES): CC1=C(/C=C/C(C)=C/C=C/C(C)=C\C(=O)O)C(C)(C)CCC1 [Isotretinoin]
- defects in OFT, atrial, and AVC cardioids [2]: specification, patterning and morphogenesis defects
- dosage at which severe compartment-specific and stage-specific effects were observed [2]: 1 nM

Structure (SMILES): CC1=C(/C=C/C(C)=C/C=C/C(C)=C/C(=O)O)C(C)(C)CCC1 [retinoic acid]
- retinoic acid concentration that leads to FHF-derived atria, not ventricular fate [3]: > 100 nM

Structure (SMILES): COc1cc(C)c(/C=C/C(C)=C/C=C/C(C)=C/C(=O)O)c(C)c1C [Acitretin]
- CM differentiation and morphology of treated cardioids [2]: Inefficient CM differentiation and morphological changes
- defects in OFT, atrial, and AVC cardioids [2]: specification, patterning and morphogenesis defects
- dosage at which severe compartment-specific and stage-specific effects were observed [2]: 5 nM

Structure (SMILES): O=C1CCC(N2C(=O)c3ccccc3C2=O)C(=O)N1 (stereo not shown) [thalidomide]
- expression of chamber-specific marker NPPA ([1]; d9.5 cardioids): downregulation of the chamber-specific marker NPPA for all lineages except for the RV and OFT
- expression of compartment identity markers (NR2F2, IRX1/4) ([1]; d9.5 cardioids): dosage-specific misregulation of compartment identity markers (NR2F2, IRX1/4)
- expression of lineage specific genes ([1]; d9.5 cardioids, fold change normalized to housekeeping gene and pluripotency): mis-regulation of lineage specific genes
- human therapeutic plasma concentrations [4]: ~2.4 µM
